Measurements from PubChem BioAssay AID1845217 (Molecular Pharmacology Branch, DTP, NCI, 2023).
pIC50: −log10 of the molar value. Several values for one entry are separate records, joined by “and”; a condition that tells them apart may be missing. Identical values can stand only once.

Tested on: VA-ES-BJ tumor spheroid viability
Experiment: Anticancer human tumor VA-ES-BJ cell line growth inhibition;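 note: spheroids exposed to compounds for seven days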;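 for viability, T/C: percent of DMSO vehicle control viability so 100% = untreated growth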
Details: spheroids with HUVEC and MSC; for viability, T/C: stronger effect = lower value
Outline: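 Complex tumor spheroids combined malignant cells with endothelial cells and mesenchymal stem cells. DNA-damaging drugs and DNA repair inhibitors were tested alone and in combination, at half-log dilutions down from clinical Cmax (top 10 microM if Cmax unknown), 0.25% DMSO final.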

CC(C)n1c(=O)n(C)c2cnc3cc(F)c(-c4ccc(OCCCN5CCCCC5)nc4)cc3c21 + Cn1nnc2c(C(N)=O)ncn2c1=O
pIC50 (curve of first compound, second compound 1 µM): < 5.00
pIC50 (curve of first compound, second compound 3.16 µM): < 5.00
pIC50 (curve of first compound, second compound 10 µM): < 5.00
pIC50 (curve of first compound, second compound 31.6 µM): < 5.00
pIC50 (curve of first compound, second compound 100 µM): < 5.00
viability, T/C (second compound 1 µM, first compound 0.0316 µM): 93%
viability, T/C (second compound 1 µM, first compound 0.1 µM): 92.2%
viability, T/C (second compound 1 µM, first compound 0.316 µM): 93%
viability, T/C (second compound 1 µM, first compound 1 µM): 105%
viability, T/C (second compound 1 µM, first compound 3.16 µM): 110%
viability, T/C (second compound 1 µM, first compound 10 µM): 77.8%
viability, T/C (second compound 3.16 µM, first compound 0.0316 µM): 94%
viability, T/C (second compound 3.16 µM, first compound 0.1 µM): 86.3%
viability, T/C (second compound 3.16 µM, first compound 0.316 µM): 93.3%
viability, T/C (second compound 3.16 µM, first compound 1 µM): 110%
viability, T/C (second compound 3.16 µM, first compound 3.16 µM): 111%
viability, T/C (second compound 3.16 µM, first compound 10 µM): 55.6%
viability, T/C (second compound 10 µM, first compound 0.0316 µM): 92.2%
viability, T/C (second compound 10 µM, first compound 0.1 µM): 94.3%
viability, T/C (second compound 10 µM, first compound 0.316 µM): 88%
viability, T/C (second compound 10 µM, first compound 1 µM): 103%
viability, T/C (second compound 10 µM, first compound 3.16 µM): 111%
viability, T/C (second compound 10 µM, first compound 10 µM): 62.1%
viability, T/C (second compound 31.6 µM, first compound 0.0316 µM): 80.6%
viability, T/C (second compound 31.6 µM, first compound 0.1 µM): 100%
viability, T/C (second compound 31.6 µM, first compound 0.316 µM): 103%
viability, T/C (second compound 31.6 µM, first compound 1 µM): 103%
viability, T/C (second compound 31.6 µM, first compound 3.16 µM): 113%
viability, T/C (second compound 31.6 µM, first compound 10 µM): 53.3%
viability, T/C (second compound 100 µM, first compound 0.0316 µM): 103%
viability, T/C (second compound 100 µM, first compound 0.1 µM): 102%
viability, T/C (second compound 100 µM, first compound 0.316 µM): 106%
viability, T/C (second compound 100 µM, first compound 1 µM): 116%
viability, T/C (second compound 100 µM, first compound 3.16 µM): 109%
viability, T/C (second compound 100 µM, first compound 10 µM): 101%

O=C(c1cc(Cc2n[nH]c(=O)c3ccccc23)ccc1F)N1CCN(C(=O)C2CC2)CC1
viability, T/C (compound 0.0949 µM): 113% and 96.3% and 94.1%
viability, T/C (compound 0.3 µM): 98.4% and 84.9% and 93.2%
viability, T/C (compound 0.949 µM): 101% and 89.1% and 92.5%
viability, T/C (compound 3 µM): 98.7% and 88% and 87%
viability, T/C (compound 9.49 µM): 74.6% and 71.3% and 67.4%
viability, T/C (compound 30 µM): 67.4% and 52.5% and 47.3%
pIC50 (curve of compound): < 4.52 and 4.59

COc1cc(C)[nH]c(=O)c1CN1CCc2c(Cl)cc(C(OC)C3COC3)c(Cl)c2C1=O (configuration not stated) + CC[C@@]1(O)C(=O)OCc2c1cc1n(c2=O)Cc2cc3c(CN(C)C)c(O)ccc3nc2-1
pIC50 (curve of first compound, second compound 0.003 µM): < 5.00
pIC50 (curve of first compound, second compound 0.00949 µM): 5.29
pIC50 (curve of first compound, second compound 0.03 µM): > 7.50
pIC50 (curve of first compound, second compound 0.0949 µM): > 7.50
pIC50 (curve of first compound, second compound 0.3 µM): > 7.50
viability, T/C (second compound 0.003 µM, first compound 0.0316 µM): 99.6%
viability, T/C (second compound 0.003 µM, first compound 0.1 µM): 88.8%
viability, T/C (second compound 0.003 µM, first compound 0.316 µM): 70.9%
viability, T/C (second compound 0.003 µM, first compound 1 µM): 64.2%
viability, T/C (second compound 0.003 µM, first compound 3.16 µM): 54.9%
viability, T/C (second compound 0.003 µM, first compound 10 µM): 52.5%
viability, T/C (second compound 0.00949 µM, first compound 0.0316 µM): 93.2%
viability, T/C (second compound 0.00949 µM, first compound 0.1 µM): 88.8%
viability, T/C (second compound 0.00949 µM, first compound 0.316 µM): 74.5%
viability, T/C (second compound 0.00949 µM, first compound 1 µM): 65.5%
viability, T/C (second compound 0.00949 µM, first compound 3.16 µM): 53%
viability, T/C (second compound 0.00949 µM, first compound 10 µM): 45.4%
viability, T/C (second compound 0.03 µM, first compound 0.0316 µM): 50.1%
viability, T/C (second compound 0.03 µM, first compound 0.1 µM): 47.5%
viability, T/C (second compound 0.03 µM, first compound 0.316 µM): 47.3%
viability, T/C (second compound 0.03 µM, first compound 1 µM): 46.9%
viability, T/C (second compound 0.03 µM, first compound 3.16 µM): 42.3%
viability, T/C (second compound 0.03 µM, first compound 10 µM): 38.4%
viability, T/C (second compound 0.0949 µM, first compound 0.0316 µM): 8.85%
viability, T/C (second compound 0.0949 µM, first compound 0.1 µM): 9.47%
viability, T/C (second compound 0.0949 µM, first compound 0.316 µM): 8.43%
viability, T/C (second compound 0.0949 µM, first compound 1 µM): 8.57%
viability, T/C (second compound 0.0949 µM, first compound 3.16 µM): 8.44%
viability, T/C (second compound 0.0949 µM, first compound 10 µM): 9.48%
viability, T/C (second compound 0.3 µM, first compound 0.0316 µM): 6.48%
viability, T/C (second compound 0.3 µM, first compound 0.1 µM): 6.48%
viability, T/C (second compound 0.3 µM, first compound 0.316 µM): 6.57%
viability, T/C (second compound 0.3 µM, first compound 1 µM): 6.59%
viability, T/C (second compound 0.3 µM, first compound 3.16 µM): 5.96%
viability, T/C (second compound 0.3 µM, first compound 10 µM): 6.06%
